This passage reports relative viability results from the supplement of paper PMC10307832.

Test in all cases: relative viability (nuclei count vs DMSO), 5 days (fraction); higher = more cells survive
Compound in assay [1]: OCc1c[nH]c2ccccc12 [Indole-3-carbinol] + CC(=O)c1c(C)c2cnc(Nc3ccc(N4CCNCC4)cn3)nc2n(C2CCCC2)c1=O [Palbociclib] (partner 0.5 µM)
An outline of the steps: (§1)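 After 5 days of treatment, lung cancer cells in 1536-well plates were fixed and stained in a single step (final 0.05% Triton X-100, 1% formaldehyde, 1 ug/ml Hoechst) and their nuclei counted on 4× images. Treatment had been applied by pin tool the day after seeding as one drug alone or as a fixed anchor-drug dose with five library-drug doses (not always all listed) in √10 steps. Relative viability is the nuclei count of treated wells divided by that of vehicle wells, and values are medians of duplicate plates.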

Compound in assay [2]: OCc1c[nH]c2ccccc12 [Indole-3-carbinol] + CCNC(=O)c1noc(-c2cc(C(C)C)c(O)cc2O)c1-c1ccc(CN2CCOCC2)cc1 [Luminespib] (partner 0.01 µM)
In outline:
as §1

Compound in assay [3]: OCc1c[nH]c2ccccc12 [Indole-3-carbinol] + C[C@]1(O)C[C@@H](c2nc(-c3ccc4ccc(-c5ccccc5)nc4c3)c3c(N)nccn32)C1 [Linsitinib] (partner 1 µM)
An outline of the steps:
as §1

Compound in assay [4]: OCc1c[nH]c2ccccc12 [Indole-3-carbinol] + NC(=O)Nc1cc(-c2cccc(F)c2)sc1C(=O)N[C@H]1CCCNC1 [AZD7762] (partner 0.2 µM)
In outline:
as §1

Compound in assay [5]: OCc1c[nH]c2ccccc12 [Indole-3-carbinol] + O=C(c1cc(Cc2n[nH]c(=O)c3ccccc23)ccc1F)N1CCN(C(=O)C2CC2)CC1 [Olaparib] (partner 8 µM)
An outline of the steps: as §1

In the case of NCI-H3122, the relative viability in assay [1] (first compound 0.253 µM) was 0.188; in assay [1] (first compound 0.8 µM), 0.196; in assay [1] (first compound 2.53 µM), 0.176; in assay [1] (first compound 8 µM) it was 0.183; in assay [2] (first compound 0.253 µM) it was 0.0769; in assay [2] (first compound 0.8 µM) it was 0.123. Besides, the relative viability in assay [2] (first compound 2.53 µM) was determined as 0.108; in assay [2] (first compound 8 µM), 0.0975; in assay [3] (first compound 0.253 µM), 1.02; in assay [3] (first compound 0.8 µM), 1.03; in assay [3] (first compound 2.53 µM) it was 1.07; in assay [3] (first compound 8 µM), 1.04. For the same cell line, the relative viability amounted to 1.1 in assay [4] (first compound 0.253 µM); 1 in assay [4] (first compound 0.8 µM); 1.07 in assay [4] (first compound 2.53 µM); 0.899 in assay [4] (first compound 8 µM); 0.65 in assay [5] (first compound 0.253 µM); 0.612 in assay [5] (first compound 0.8 µM). Moreover, the relative viability is 0.495 in assay [5] (first compound 2.53 µM) and 0.538 in assay [5] (first compound 8 µM).
For the cell line PC-3 [JPC-3], the relative viability in assay [1] (first compound 0.253 µM) was found to be 0.574; in assay [1] (first compound 0.8 µM), 0.568; in assay [1] (first compound 2.53 µM), 0.557; in assay [1] (first compound 8 µM), 0.507; in assay [2] (first compound 0.253 µM), 0.644; in assay [2] (first compound 0.8 µM), 0.796. Moreover, the relative viability is 0.722 in assay [2] (first compound 2.53 µM); 0.658 in assay [2] (first compound 8 µM); 0.948 in assay [3] (first compound 0.253 µM); 0.985 in assay [3] (first compound 0.8 µM); 0.922 in assay [3] (first compound 2.53 µM); 0.887 in assay [3] (first compound 8 µM). Further, the relative viability in assay [4] (first compound 0.253 µM) turned out to be 0.723; in assay [4] (first compound 0.8 µM) it was 0.925; in assay [4] (first compound 2.53 µM), 0.765; in assay [4] (first compound 8 µM) it was 0.91; in assay [5] (first compound 0.253 µM), 1.17; in assay [5] (first compound 0.8 µM), 1.29. Moreover, the relative viability is 1.11 in assay [5] (first compound 2.53 µM) and 1.03 in assay [5] (first compound 8 µM).
Turning to PC-14, the relative viability stood at 0.538 in assay [1] (first compound 0.253 µM); 0.509 in assay [1] (first compound 0.8 µM); 0.541 in assay [1] (first compound 2.53 µM); 0.462 in assay [1] (first compound 8 µM); 0.218 in assay [2] (first compound 0.253 µM); 0.143 in assay [2] (first compound 0.8 µM). Also, the relative viability was found to be 0.24 in assay [2] (first compound 2.53 µM); 0.191 in assay [2] (first compound 8 µM); 0.943 in assay [3] (first compound 0.253 µM); 0.882 in assay [3] (first compound 0.8 µM); 0.891 in assay [3] (first compound 2.53 µM); 0.903 in assay [3] (first compound 8 µM). Moreover, the relative viability in assay [4] (first compound 0.253 µM) was 0.342; in assay [4] (first compound 0.8 µM) it was 0.315; in assay [4] (first compound 2.53 µM) it was 0.331; in assay [4] (first compound 8 µM), 0.327; in assay [5] (first compound 0.253 µM) it was 0.292; in assay [5] (first compound 0.8 µM), 0.285. Moreover, the results for the relative viability in assay [5] (first compound 2.53 µM) and in assay [5] (first compound 8 µM) were 0.268 and 0.221, respectively.
Turning to RERF-LC-KJ, the relative viability in assay [1] (first compound 0.253 µM) was 1.14; in assay [1] (first compound 0.8 µM), 0.968; in assay [1] (first compound 2.53 µM), 0.941; in assay [1] (first compound 8 µM) it was 1.15; in assay [2] (first compound 0.253 µM), 1.25; in assay [2] (first compound 0.8 µM), 1.18. For the same cell line, the relative viability amounted to 1.23 in assay [2] (first compound 2.53 µM); 1.11 in assay [2] (first compound 8 µM); 0.961 in assay [3] (first compound 0.253 µM); 0.943 in assay [3] (first compound 0.8 µM); 0.868 in assay [3] (first compound 2.53 µM); 0.825 in assay [3] (first compound 8 µM). The relative viability in assay [4] (first compound 0.253 µM) was 1.07; in assay [4] (first compound 0.8 µM), 1.01; in assay [4] (first compound 2.53 µM), 0.962; in assay [4] (first compound 8 µM) it was 0.885; in assay [5] (first compound 0.253 µM), 0.878; in assay [5] (first compound 0.8 µM) it was 0.93. Further, the relative viability in assay [5] (first compound 2.53 µM) stood at 0.957; in assay [5] (first compound 8 µM), 0.801.
